{"source": "patent US20220175710A1", "about": "“COMBINATION THERAPY” (Akershus Universitetssykehus HF, priority 2019, published 2022)", "format_in_all_cases": "cell-based, human", "key": {"CHRNA7 [1]": {"tested_on": "CHRNA7", "test": "Quantitative PCR of CHRNA7 transcription in THP-1 monocyte cultures", "conditions": "for CHRNA7 (\"N\") transcription relative to TPA-treated unstimulated condition / N/M ratio (CHRNA7/CHRFAM7A transcription): FIG. 7; for CHRNA7 (\"N\") transcription relative to TPA-treated unstimulated condition: overnight; for CHRNA7 transcription (quantitative PCR): FIG. 6", "description": "(§1) The human acute monocytic leukemia cell line THP-1 (ATCC TIB-202, ATCC, US) was cultured in RPMI 1640 with GlutaMax (Gibco, Life Technologies, UK) supplemented with 10% fetal bovine serum (FBS), (Gibco, Life Technologies, UK) and 1% Antibiotic/Antimycotic (Gibco, Life Technologies, UK) at 37° C. and 5% CO2.\n(§2) 1,6 million cells were seeded in each well in 6-well plates and differentiated to macrophages by a 48 h treatment of 100 nM TPA (12-O-tetradecanoylphorbol-13-acetate), (Cell Signaling Technology, US). Cells were treated with 100 μM Docosahexaenoic acid (DHA), (Sigma Aldrich, Germany), 10 ng/ul Amyloid beta 1-40 (Aβ), (ApexBio, US), 10 μM PNU-120596, (Sigma Aldrich, Germany), 40 μM Galanthamine hydrobromide, (Sigma Aldrich, Germany) and combinations overnight (approximately 20 h).\n(§3) Total RNA was isolated with the RNeasy Plus Mini kit (Qiagen) using genomic DNA eliminator columns. THP-1 cells were lysed directly in the wells using 350 μl RLT Plus according to the protocol and stored at −80° C. The frozen lysate was incubated at 37° C. in a water bath until completely thawed and homogenized using QIAshredder (Qiagen) spin columns. RNA was eluted in 30 μl RNase free water and the quantity assessed using the NanoDrop ND-1000 Spectrophotometer (NanoDrop Technologies).\n(§4) 1 μg total RNA was reverse transcribed using the QuantiTect cDNA Reverse Transcription Kit (Qiagen). Due to low CHRNA7 expression (Cq values>38, Table 2), we increased RNA input to 2 μg, changed the reverse transcription kit to High Capacity Reverse Transcription Kit (Life Technologies AS) and the cDNA was preamplified using TaqMan PreAmp Master Mix (Life Technologies AS), running 18 cycles and diluted 1:20 (FIG. 7). We then obtained Cq values<27 (average 25,4) for CHRNA7 and <20 (average 18,6 for CHRFAM7A). Absolute quantification was run using CHRFAM7A and CHRNA7 synthetic oligonucleotides standards (GeneArt, Life Technologies AS). 2.5 ul cDNA diluted 1:20 after preamplification was applied per qPCR reaction using TaqMan gene expression assays CHRFAM7A (Hs04189909_m1) and CHRNA7 (Hs01063372_m1) (Thermo Fisher) and TaqMan Gene expression Master Mix (Life Technologies AS) in a total volume of 10 μl and run in triplicates on Quant Studio 7 (Applied Biosystems)."}, "CHRFAM7A [2]": {"tested_on": "CHRFAM7A", "test": "Quantitative PCR of CHRFAM7A transcription in THP-1 monocyte cultures", "conditions": "for CHRFAM7A (\"M\") transcription relative to TPA-treated unstimulated condition: FIG. 7, overnight; for CHRFAM7A transcription (quantitative PCR): FIG. 6", "description": "as §1, §2, §3, §4"}, "CHRNA7 [3]": {"tested_on": "CHRNA7", "test": "Western blot of CHRNA7 (56 kDa band) in TPA differentiated THP-1 cells", "conditions": "for CHRNA7 (56 kDa protein) expression, conclusion in words: Table 1 / FIG. 4, both experiments", "description": "The cellular samples were tested for the presence of the α7 subtype of the nicotinic acetylcholine receptor (nAChR) by Western blot analysis on THP-1 cells that were incubated with and without Abeta1-42 and with and without DHA. The purpose of this was to show monocytic membrane expression of nAChR and to explore altered regulation of this receptor in response to DHA stimulation.\nThe THP-1 cells were seeded in 6-well plates with 2 mL per well at a concentration of 830 000 cells/mL (experiment 1) or 860 000 cells/ml (experiment 2), and differentiated using 100 nM TPA (12-O-Tetradecanoylphorbol-13-Acetate) for 24 hours. For the experiments, DHA was added to give a concentration of 100 uM (experiment 1) or 10 uM and 100 uM (experiment 2), and Aβ42 was added at a final concentration of 2.5 ng/ul.\nThe cells were incubated overnight (18 hours). Each DHA experiment had parallels of cells not incubated with DHA. After incubation the cells were kept cold, scraped loose and transferred to 15-ml tubes. Cells were washed twice with cold PBS before resuspended in 100 ul PBS and transferred to an Eppendorf tube. The cells were lysed through five freeze thaw cycles, and total protein in each sample was determined by the BCA protein assay. Samples were stored at −80° C. upon analysis.\nWestern blot analysis was performed cat no 21379-1-AP, Proteintech, using 1:1000 using dilution. The secondary antibody was a goat anti-rabbit IgG-HRP (cat no 4030-05, Southern Biotech) diluted 1:2000. Solvents for dilutions were as described below.\nSamples were dissolved in 4× Laemmli buffer w/ b-ME (BioRad and, respectively) denatured at 95° C. for 5 min, and a quantity of 12 μg protein/sample/well was loaded to the gel. A volume of 10 uL of Precision Plus protein Dual Xtra Color Standards (BioRad) was used for molecular weight estimation. The samples were resolved in 8-16% gradient SDS-PAGE (Criterion TGX precast gels, BioRad) and immunoblotted onto PVDF membranes (GE Healthcare). Membranes were blocked in 5% non-fat dried milk in 1× Tris Buffered Saline containing 0.1% Tween20 (1×TBS-T) (BioRad) at room temperature for 1 h and incubated overnight at 4° C. with primary antibodies in 1×TBS-T with 1% non-fat dried milk. After washing, the membranes were incubated with secondary antibody in 5% non-fat dried milk in 1×TBS-T for 1 h at room temperature. The blots were visualized by ECL Plus Western blotting detection system (GE Healthcare) according to the supplier's instructions. Membranes were visualized on the LAS-3000 mini (Fujifilm Corporation) and band intensities were quantified using MultiGauge analysis software (Fujifilm Corporation).\nBands presented are at the predicted MW of the nAChR (56 kDa).\n(§5) DHA: Docosahexaenoic acid, Aβ1-40 peptides: the conventional amyloid beta peptide containing 40 amino acids."}, "THP-1 cells": {"tested_on": "THP-1 cells", "test": "IP LC-MS of Abeta-40 degradation in monocytic THP-1 cells", "description": "Firstly, a cell model was used to study the effect of the omega-3 fatty acid DHA on degradation of amyloid beta. Here, the THP-1 cells were incubated with and without DHA (1 μM), and subsequently with Abeta (1-40 aa, 10 ng/μL). Secondly, monocyte from healthy controls (NC) and patients with neurodegenerative diseases (AD) were isolated. In both these cases, the cells were lysed and IP LC-MS was performed.\nIn FIG. 1, each bar in the graph represents the accumulated cleavage sites on each position along the 40 amino acids in Abeta 1-40. Thus the bar contains peptides of various lengths, but with the same start or end amino acid. Three parallels were analysed for each condition/sample group, which refers to the triplicate incubations of each condition, with or without DHA.\nMonocytic THP-1 cells were used as a model system, and IP LC-MS as analytical approach to investigate the effect of DHA on monocytic Abeta-40 processing.\nA THP-1 cell line culture was matured and differentiated, split to be control and stimulated parallels and this was replicated to be performed a total of 7 times (controls n=7; DHA stimulated n=7). Test cells were incubated with DHA overnight, and all samples were incubated with Abeta-40 for 1 to 2 hours. The cells were lysed by freeze-thaw cycles prior to immunoprecipitation performed with two commercial and one in-house antibody. […]"}, "CHRNA7 [4]": {"tested_on": "CHRNA7", "test": "Western blot of CHRNA7 (56 kDa band) in TPA differentiated THP-1 cells", "conditions": "FIG. 5; co-stimulation with DHA and Aβ1-40 peptide, compared with DHA alone"}, "CHRFAM7A [5]": {"tested_on": "CHRFAM7A", "test": "Western blot of CHRFAM7A in differentiated THP-1 cells", "conditions": "FIG. 5", "source_text": "as §5"}, "[6]": {"conditions": "stimulus as labelled, nothing else added, 100 μM DHA, 10 μM PNU-120596, 40 μM Galanthamine hydrobromide, 10 ng/ul Aβ 1-40"}, "[7]": {"conditions": "co-stimulation with DHA and Aβ1-40 peptide, compared with DHA alone"}, "[8]": {"conditions": "stimulus as labelled plus Amyloid β 1-40 10 ng/ul"}}, "note": "“Also recorded” adds a separate entry of the source."}
{"molecule": "COc1cc(OC)c(NC(=O)Nc2cc(C)on2)cc1Cl", "note": "[PNU-120596]", "values": [{"measurement": "CHRNA7 (\"N\") transcription relative to TPA-treated unstimulated condition", "setting": "CHRNA7 [1]; [6]", "result": "smaller changes"}, {"measurement": "CHRFAM7A (\"M\") transcription relative to TPA-treated unstimulated condition", "setting": "CHRFAM7A [2]; [6]", "result": "smaller changes"}]}
{"molecule": "Amyloid 13: the conventional amyloid beta peptide containing 40 amino acids", "values": [{"measurement": "CHRNA7 (\"N\") transcription relative to TPA-treated unstimulated condition", "setting": "CHRNA7 [1]; [6]", "result": "reduced"}, {"measurement": "CHRFAM7A (\"M\") transcription relative to TPA-treated unstimulated condition", "setting": "CHRFAM7A [2]; [6]", "result": "reduced"}]}
{"molecule": "Ab1-42: the conventional amyloid beta peptide containing 42 amino acids", "values": [{"measurement": "~56 kDa Band signal intensity", "setting": "CHRNA7 [3]; Exp 1, Ab1-42 only, 2.5 ng/ul, 18 hours", "result": "1.7E+06"}, {"measurement": "~56 kDa Band signal intensity", "setting": "CHRNA7 [3]; Exp 2, Ab1-42 only, 2.5 ng/ul, 18 hours", "result": "2.1E+06"}, {"measurement": "CHRNA7 (56 kDa protein) expression, conclusion in words", "setting": "CHRNA7 [3]", "result": "lower expression"}]}
{"molecule": "CC/C=C\\C/C=C\\C/C=C\\C/C=C\\C/C=C\\C/C=C\\CCC(=O)O", "note": "[DHA, (4Z, 7Z, 10Z, 13Z, 16Z, 19Z)-4,7, 10, 13, 16, 19-docosahexaenoic acid]", "values": [{"measurement": "CHRNA7 transcription (quantitative PCR)", "setting": "CHRNA7 [1]; DHA alone", "result": "increase"}, {"measurement": "CHRNA7 transcription (quantitative PCR)", "setting": "CHRNA7 [1]; [7]", "result": "more pronounced"}, {"measurement": "N/M ratio (CHRNA7/CHRFAM7A transcription)", "setting": "CHRNA7 [1]; [8]", "result": "increased; also recorded: higher"}, {"measurement": "CHRNA7 (\"N\") transcription relative to TPA-treated unstimulated condition", "setting": "CHRNA7 [1]; [8]", "result": "unaltered; also recorded: increases"}, {"measurement": "N/M ratio (CHRNA7/CHRFAM7A transcription)", "setting": "CHRNA7 [1]; stimulus as labelled, no Amyloid β added", "result": "increased"}, {"measurement": "CHRNA7 (\"N\") transcription relative to TPA-treated unstimulated condition", "setting": "CHRNA7 [1]; [6]", "result": "stable"}, {"measurement": "Abeta cut pattern (enzymatic activities), DHA versus no DHA", "setting": "THP-1 cells; DHA 1 μM, then Abeta 1-40 10 ng/μL, FIG. 1", "result": "differing enzymatic activities"}, {"measurement": "average ratio of catabolic peptides in DHA versus control samples", "setting": "THP-1 cells; DHA overnight, then Abeta-40 for 1 to 2 hours, controls n=7, DHA stimulated n=7, semi-quantitative", "result": "1.3 (12% RSD)"}, {"measurement": "~56 kDa Band signal intensity", "setting": "CHRNA7 [3]; Exp 1, 100 uM Dha alone, TPA differentiated THP-1, 18 hours", "result": "3.5E+06"}, {"measurement": "~56 kDa Band signal intensity", "setting": "CHRNA7 [3]; Exp 1, Ab1-42 (2.5 ng/ul) + 100 uM Dha, 18 hours", "result": "3.0E+06"}, {"measurement": "~56 kDa Band signal intensity", "setting": "CHRNA7 [3]; Exp 2, Ab1-42 (2.5 ng/ul) + 10 uM Dha, 18 hours", "result": "2.6E+06"}, {"measurement": "~56 kDa Band signal intensity", "setting": "CHRNA7 [3]; Exp 2, Ab1-42 (2.5 ng/ul) + 100 uM Dha, 18 hours", "result": "2.7E+06"}, {"measurement": "CHRNA7 expression (Western blot)", "setting": "CHRNA7 [3]; FIG. 5, DHA alone", "result": "increase"}, {"measurement": "CHRNA7 (56 kDa protein) expression, conclusion in words", "setting": "CHRNA7 [3]", "result": "upregulation"}, {"measurement": "CHRFAM7A transcription (quantitative PCR)", "setting": "CHRFAM7A [2]; DHA alone", "result": "decrease"}, {"measurement": "CHRFAM7A transcription (quantitative PCR)", "setting": "CHRFAM7A [2]; [7]", "result": "more pronounced"}, {"measurement": "CHRFAM7A (\"M\") transcription relative to TPA-treated unstimulated condition", "setting": "CHRFAM7A [2]; [8]", "result": "reduces"}, {"measurement": "CHRFAM7A (\"M\") transcription relative to TPA-treated unstimulated condition", "setting": "CHRFAM7A [2]; [6]", "result": "reduced"}, {"measurement": "CHRNA7 expression (Western blot)", "setting": "CHRNA7 [4]", "result": "more pronounced"}, {"measurement": "CHRFAM7A expression (Western blot)", "setting": "CHRFAM7A [5]; DHA alone", "result": "decrease"}, {"measurement": "CHRFAM7A expression (Western blot)", "setting": "CHRFAM7A [5]; [7]", "result": "more pronounced"}]}
